Converted amounts (≈) assume the structure as drawn. Where two headings read alike, the source gives them in different places.
Key:
[1] = tested on: Burkholderia pseudomallei 1026b; test: microbe, parasite or virus in culture; type: cell-based
[2] = tested on: Francisella tularensis ShuS4; test: microbe, parasite or virus in culture; type: cell-based
clinical = conditions: human, in vivo, 400 mg
Description: The twice daily divided dose of study drug was administered approximately 12 hours apart. All subjects randomized to placebo received placebo oral capsules that were identical to study drug capsules and given according to the same dosing schedule and same quantity of capsules as subjects randomized to receive ceftibuten and clavulanate concurrently. All SDs, as well as the first daily dose of the MD period on […] were given while the subject was fasted. […] In addition, blood samples for assessment of trough (pre-dose) concentrations were collected on day 7, day 8, day 9, and alternate days thereafter through study day 17. […] Peak concentration (Cmax), time at which Cmax was observed (Tmax), area under the concentration-time curve to infinity (AUCinf), percent coefficient of variation (% CV), elimination half-life (T1/2), apparent total clearance of the drug from plasma after oral administration (CL/F), and apparent volume of distribution during terminal phase after non-intravenous administration (Vz/F) were determined. […] Similar to above, six subjects were randomized to receive active drug and two were randomized to receive placebo. […] Safety, tolerability and PK were assessed as described above.

CTX-M-15 = CTX-M-15 (Escherichia coli, UniProt Q9EXV5); type: biochemical
Chain of CTX-M-15 (Q9EXV5 entry or part of it): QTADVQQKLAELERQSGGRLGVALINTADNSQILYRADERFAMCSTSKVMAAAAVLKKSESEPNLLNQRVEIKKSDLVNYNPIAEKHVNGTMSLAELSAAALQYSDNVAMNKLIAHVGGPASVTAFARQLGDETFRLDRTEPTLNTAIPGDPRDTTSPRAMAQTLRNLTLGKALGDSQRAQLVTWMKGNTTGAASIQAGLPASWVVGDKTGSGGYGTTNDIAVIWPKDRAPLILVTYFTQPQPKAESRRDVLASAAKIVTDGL

[3] = tested on: Klebsiella pneumoniae isolates; test: MIC of cephalosporins alone or with clavulanate/tazobactam; type: cell-based; conditions: clavulanate 2:1, tazobactam 4 μg/mL
[4] = tested on: Escherichia coli isolates; test: as above; type: cell-based; conditions: clavulanate 2:1, tazobactam 4 μg/mL
[5] = in vivo, cited from earlier work
[6] = tested on: beta-lactamase producing K. pneumoniae; test: In vitro chemostat model, clavulanate exposures with fixed ceftibuten exposure; type: cell-based
CTX-M-15 Strain = test: MIC of cephalosporins without and with CLV (Table 16); type: cell-based
E. coli (ATCC 25922) = test: One-compartment in vitro chemostat infection model, ceftibuten alone; type: cell-based
Description: Becton, Dickinson and Company, Sparks, Md.) and placed in a water bath at 35° C. Magnetic stirrers were used for consistent mixing of the contents during the experiment. […] For each drug exposure/bacteria combination, the experiment was conducted over 24 hours and consisted of a drug free control and two experimental (i.e., drug containing) replicate models. Data from the two replicate models were treated as independent exposures given there is some expected variability in obtained concentrations due to small inconsistencies in volume flows between the chemostat models. A peristaltic pump (Masterflex L/S model 7524-40; Cole-Parmer, Vernon Hills, Ill.) was set to infuse CAMHB into the models at a desired elimination rate for the drug. Broth samples were collected from the model throughout the experiment to determine free drug concentrations and bacterial density. Antibiotic carryover was minimized by serial dilution of samples. Bacterial density was counted after 18-24 hours incubation at 37° C. […] Time-kill curves were constructed by plotting the log10 CFU/mL against time. […] The control models served to define 0% fT>MIC results. […] Drug concentrations were assessed at the peak and trough of each administered dose to achieve the desired exposure and at least one other midpoint concentration for each interval. […] The change in log10 CFU/ml at 24 hours was the primary endpoint for exposure response relationship. […] Mountain View, Calif.).

[7] = tested on: Enterobacter aerogenes isolates; test: MIC of cephalosporins alone or with clavulanate/tazobactam; type: cell-based; conditions: Klebsiella aerogenes, clavulanate 2:1, tazobactam 4 μg/mL
[8] = tested on: Yersinia pestis Colorado92; test: microbe, parasite or virus in culture; type: cell-based
[9] = tested on: Burkholderia mallei China7; test: microbe, parasite or virus in culture; type: cell-based
[10] = In vivo drug-drug interaction, plasma pharmacokinetics after oral bolus; conditions: rat, oral 34.5 mg/kg ceftibuten ± 10.8 mg/kg clavulanate
[11] = tested on: ESBL Klebsiella pneumoniae isolates; test: Killing kinetics (time-kill); type: cell-based; conditions: 4X MIC of CTB+CLA
[12] = tested on: ESBL Escherichia coli isolates; test: MIC against isolates analyzed in time-kill experiments; type: cell-based
[13] = tested on: Citrobacter freundii isolates; test: MIC of cephalosporins alone or with clavulanate/tazobactam; type: cell-based; conditions: clavulanate 2:1, tazobactam 4 μg/mL
[14] = tested on: beta-lactamase producing E. coli (CTX-M-55; CTX-M-15, TEM-OSBL); test: microbe, parasite or virus in culture; type: cell-based
[15] = sub-saturating conditions, simulated from measured kinetic constants

## Nc1nc(/C(=C/CC(=O)O)C(=O)N[C@@H]2C(=O)N3C(C(=O)O)=CCS[C@H]23)cs1 [Ceftibuten, ceftibuten]
[1]
  MIC: 8 µg/mL (≈ 19.5 µM)
[2]
  MIC: 0.25 µg/mL (≈ 0.609 µM)
clinical
  geometric mean % CV of exposure (Cmax and AUCinf): 11-16%
clinical; po, AUCinf
  AUC(0-inf): 93000 ng·h/mL
clinical; po, Cmax
  Cmax: 17900 ng/mL
clinical; po, T½
  half-life: 3.11 h
clinical; po, Vz/F
  Vd/F: 19.3 L
CTX-M-15; direct-turnover assay
  concentration saturating CTX-M-15 activity: did not saturate CTX-M-15 activity
CTX-M-15; read-out: KM (95% CI), CTX-M-15-mediated hydrolysis
  Km: > 100 µM
CTX-M-15; [15]
  fold slower degradation by CTX-M-15 than cefixime: about 2.5 fold
  fold slower degradation by CTX-M-15 than cefotaxime: ~70 fold
  fold slower degradation by CTX-M-15 than cefpodoxime: ~67 fold
[3]; AKPN1159 (SHV-12)
  MIC: 4 µg/mL
[3]; AKPN1161 (SHV-7)
  MIC: 2 µg/mL
[3]; AKPN1162 (CTX-M-15, SHV-12)
  MIC: 32 µg/mL
[3]; AKPN1166 (CTX-M-14, SHV-12)
  MIC: 4 µg/mL
[3]; AKPN1167 (SHV-2)
  MIC: 2 µg/mL
[4]; AECO001 (no ESBL)
  MIC: 0.5 µg/mL
[4]; AECO1078 (CTX-M-15)
  MIC: 32 µg/mL
[4]; AECO1147 (CTX-M-15)
  MIC: 4 µg/mL
[4]; AECO1157 (CTX-M-15, TEM-OSBL)
  MIC: 8 µg/mL
[4]; AECO1159 (CTX-M-15)
  MIC: 16 µg/mL
[4]; AECO1169 (CTX-M-1, TEM-OSBL)
  MIC: 1 µg/mL
[4]; AECO1172 (CTX-M-14)
  MIC: 2 µg/mL
[5]; 400 mg
  Mean Cmax: 15000 ng/mL
  Mean fCmax: 5.3 µg/mL
[5]; po
  bioavailability: 40-90%
  time free drug concentrations >2 μg/mL following drug administration: at least 6 hours
[5]
  Elimination half-life: ~2.4 h
  Mean unbound plasma concentration following one elimination half-life: 2600 ng/mL
[6]; K. pneumoniae CTX-M-14, SHV-12
  MIC: 16 µg/mL
[6]; K. pneumoniae CTX-M-15, SHV-12
  MIC: > 64 µg/mL
CTX-M-15 Strain; read-out: MIC CTX-M-15 Strain − CLV
  MIC: 16 µg/mL
CTX-M-15 Strain; with CLV
  MIC CTX-M-15 Strain + CLV: 1 µg/mL
E. coli (ATCC 25922); 24 hours, Emax model
  fT > MIC for 1-log CPU reduction: 58.5%
  fT > MIC for 2-log CPU reduction: 66.0%
  fT > MIC for Stasis: 53.7%
E. coli (ATCC 25922); Escherichia coli, ATCC25922
  MIC: 0.25 µg/mL
[7]; AEAE1027 (CTX-M-14)
  MIC: 1 µg/mL
[7]; AEAE1029 (CTX-M-15)
  MIC: 8 µg/mL
[8]
  MIC: 0.03 µg/mL (≈ 0.0731 µM)
[9]
  MIC: 1 to 2 µg/mL (≈ 2.44 to 4.87 µM)
[10]
  effect of the combination on plasma concentration of ceftibuten vs ceftibuten alone: did not markedly alter
[11]; AKPN1159, 2 h
  Change in Log10 CFU/mL From Inoculum (0 hr): 0.65 Log10 CFU/mL
[11]; AKPN1159, 4 h
  Change in Log10 CFU/mL From Inoculum (0 hr): 2.37 Log10 CFU/mL
[11]; AKPN1159, 6 h
  Change in Log10 CFU/mL From Inoculum (0 hr): 3.01 Log10 CFU/mL
[11]; AKPN1159, 24 h
  Change in Log10 CFU/mL From Inoculum (0 hr): 3.71 Log10 CFU/mL
[11]; AKPN1162, 2 h
  Change in Log10 CFU/mL From Inoculum (0 hr): 1.57 Log10 CFU/mL
[11]; AKPN1162, 4 h
  Change in Log10 CFU/mL From Inoculum (0 hr): 2.76 Log10 CFU/mL
[11]; AKPN1162, 6 h
  Change in Log10 CFU/mL From Inoculum (0 hr): 2.96 Log10 CFU/mL
[11]; AKPN1162, 24 h
  Change in Log10 CFU/mL From Inoculum (0 hr): 3.55 Log10 CFU/mL
[12]; AECO1156 (CTXM-15, TEM-OSBL)
  MIC: 16 µg/mL (≈ 39 µM)
[12]; AECO1157 (CTXM-15, TEM-OSBL)
  MIC: 8 µg/mL (≈ 19.5 µM)
[12]; AECO1162 (CTX-M-14)
  MIC: 8 µg/mL (≈ 19.5 µM)
[12]; AECO1166 (SHV-12)
  MIC: 2 µg/mL (≈ 4.87 µM)
[13]; ACFR1034 (CTX-M-15, TEM-OSBL)
  MIC: > 64 µg/mL
[13]; ACFR1035 (CTX-M-3, TEM-OSBL)
  MIC: 16 µg/mL
[14]; E. coli CTX-M-15, TEM-OSBL
  MIC: > 64 µg/mL
[14]; E. coli CTX-M-55, listed as CTB
  MIC: >64 µg/mL
[14]; Escherichia coli, E. coli CTX-M-55, read-out: MIC
  MIC: > 64 µg/mL
